Test results published in the NIST ThermoML archive (doi:10.1016/j.jct.2010.10.018).

Experiment: xn = mol fraction of the nth substance listed
Settings: 101 kPa, Liquid, Vibrating tube method

CC(C)(C)O [2-methylpropan-2-ol] + O
mass density [kg/m3]
Settings	323.15 K	333.15 K	348.15 K
x1 = 0.00089	–	982.51	974.22
x1 = 0.00146	–	982.1	973.75
x1 = 0.00269	–	981.23	973.04
x1 = 0.00403	–	980.3	972.25
x1 = 0.00513	–	979.52	971.5
x1 = 0.00761	–	977.87	969.81
x1 = 0.01405	–	973.36	965
x1 = 0.0248	–	965.88	957.02
x1 = 0.03494	–	959.46	949.37
x1 = 0.04241	–	954.72	944.24
x1 = 0.05218	–	947.17	936.2
x1 = 0.05887	–	942.74	931.84
x1 = 0.06973	–	935.49	924.4
x1 = 0.1125	–	908.96	896.84
x1 = 0.1566	–	885.44	872.83
x1 = 0.208	–	864.42	850.42
x1 = 0.2408	–	852.37	838.25
x1 = 0.3023	–	834.38	820.05
x1 = 0.3451	–	823.51	808.66
x1 = 0.4045	–	810.41	795.17
x1 = 0.4225	–	807.23	792.36
x1 = 0.4653	–	799.78	784.18
x1 = 0.5344	798.37	788.31	772.8
x1 = 0.6029	789.18	778.96	763.18
x1 = 0.6909	779.13	768.71	752.22
x1 = 0.726	775.51	765.01	748.55
x1 = 0.7999	769.18	758.52	741.72
x1 = 0.8711	763	752.17	734.96
x1 = 0.9183	759.52	748.6	731.4
x1 = 0.9574	756.76	745.7	728.29
x1 = 0.9652	756.21	745.12	727.67
x1 = 0.9795	755.31	744.15	726.63
x1 = 0.9821	755.09	743.92	726.41
x1 = 0.9944	754.31	743.11	725.51
x1 = 0.996	754.22	743.02	725.4
x1 = 1	753.94	742.7	725.05
